The record followed here is patent publication US20170360779A1, “PHARMACEUTICAL COMPOSITION COMPRISING BICYCLIC NITROGEN-CONTAINING AROMATIC HETEROCYCLIC AMIDE COMPOUND AS ACTIVE INGREDIENT” (Astellas Pharma Inc., priority 2014, published 2017).

Test [1] has as its system A427 cells. Nature of the test: Anti-tumor test (1) on mice bearing A427 tumors. It is filed as in vivo, BALB/c nude mice. Particulars: Test Example 3, A427 (LKB1 mutation-positive), 8 mg/kg oral once a day for 21 days, final measuring day. Here is the method: (§1) A427 cells and NCI-H1395 cells which are LKB1 mutation-positive non-small cell lung cancer cell lines, and HARA cells and NCI-H1993 cells which are LKB1 wild-type non-small cell lung cancer cell lines, suspended in a mixed solution of PBS and Matrigel (registered trademark) in 1:1, were injected and implanted, 3×10^6 cells each, to 4- to 5-week-old male BALB/c nude mice (Charles River Laboratories Japan, Inc.) under the skin on the back. After that, administering of the test compounds was started after confirming that the average tumor volume exceeded 100 mm^3. The test was performed on each of the 4 to 5 mice in a solvent group and a compound administered group. By oral administration, 6% cyclodextrin aqueous solution for the solvent group, and 6% cyclodextrin aqueous solution in which the test compound was mixed by 8 mg/kg for the compound administered group were administered. The administration was performed once a day for 14 days (NCI-H1993, HARA), 21 days (A427), or 35 days (NCI-H1395), and the body weight and the tumor diameter were measured twice a week. For calculation of the tumor volume, the formula below was used.
(§2) [Tumor volume (mm^3)]=[major axis of tumor (mm)]×[minor axis of tumor (mm)]^2×0.5
(§3) The inhibition rate of tumor growth and the rate of tumor regression were calculated from the average value of the tumor volume according to the formula below. […]

The subject of test [2] is NCI-H1395 cells. In words: Anti-tumor test (1) on mice bearing NCI-H1395 tumors. Format: in vivo, BALB/c nude mice. Particulars: Test Example 3, NCI-H1395 (LKB1 mutation-positive), 8 mg/kg oral once a day for 35 days, final measuring day. As to the method: as §1, §2, §3
The test system of test [3] is HARA cells. Nature of the test: Anti-tumor test (1) on mice bearing HARA tumors. Format: in vivo, BALB/c nude mice. Particulars: Test Example 3, HARA (LKB1 wild-type), 8 mg/kg oral once a day for 14 days, final measuring day. As to the method:
as §1, §2, §3

The test system of test [4] is NCI-H1993 cells. Nature of the test: Anti-tumor test (1) on mice bearing NCI-H1993 tumors. Format: in vivo, BALB/c nude mice. As to conditions: Test Example 3, NCI-H1993 (LKB1 wild-type), 8 mg/kg oral once a day for 14 days, final measuring day. Here is the method:
as §1, §2, §3

Test [5] relates to A427 cells. Nature of the test: Anti-tumor test (2) on mice bearing A427 tumors. It is filed as in vivo, BALB/c nude mice. Particulars: final measuring day. As to the method: (§4) A427 cells and NCI-H1395 cells which are LKB1 mutation-positive non-small cell lung cancer cell lines, and HARA cells and NCI-H1993 cells which are LKB1 wild-type non-small cell lung cancer cell lines, suspended in a mixed solution of PBS and Matrigel (registered trademark) in 1:1, were injected and implanted, 3×10^6 cells each (for A427 cells, 5×10^6), to 4- to 5-week-old male BALB/c nude mice (Charles River Laboratories Japan, Inc.) under the skin on the back. Dividing into groups was performed when the tumor volume reached 100 to 300 mm^3, and administering of the test compounds was started. The test was performed on each of the 5 mice in the solvent group and the compound administered group. By oral administration, 6% cyclodextrin aqueous solution for the solvent group, and 6% cyclodextrin aqueous solution in which the test compound was mixed by the dosage shown in Table 4 for the compound administered group were administered. The administration was performed once a day for 14 days (HARA), 21 days (A427, NCI-H1993), or 35 days (NCI-H1395), and the body weight and the tumor diameter were measured twice a week. For calculation of the tumor volume, the formula below was used.
(§5) [Tumor volume (mm^3)]−[major axis of tumor (mm)]×[minor axis of tumor (mm)]^2×0.5
(§6) The inhibition rate of tumor growth and the rate of tumor regression were calculated from the average value of the tumor volume according to the formula below.
(§7) Inhibition rate of tumor growth (%)=(1−average of tumor volume growth in each group/average of tumor volume growth in control group)×100
(§8) Rate of tumor regression (%)=(1−average tumor volume in each group on measuring day/average tumor volume in each group when dividing groups)×100

Test [6] relates to NCI-H1395 cells. In words: Anti-tumor test (2) on mice bearing NCI-H1395 tumors. Format: in vivo, BALB/c nude mice. Particulars: final measuring day. Here is the method: as §4, §5, §6, §7, §8
In test [7] the test system is HARA cells. Nature of the test: Anti-tumor test (2) on mice bearing HARA tumors. It is filed as in vivo, BALB/c nude mice. As to conditions: Test Example 4, HARA, final measuring day. As to the method: as §4, §5, §6, §7, §8
Test [8] concerns NCI-H1993 cells. Nature of the test: Anti-tumor test (2) on mice bearing NCI-H1993 tumors. Format: in vivo, BALB/c nude mice. As to conditions: final measuring day. As to the method:
as §4, §5, §6, §7, §8

Test [9] deals with AMPK. In words: Evaluation on effect of activating AMPK (phosphorylation of ACC Ser79, Cell ELISA in MDA-MB-453 cells). It is filed as cell-based. Particulars: Homo sapiens, 2 hours, concentration as freebase. Here is the method: 36 μl each of MDA-MB-453 cells was seeded in Leibovitz's L-15 medium including 10% fetal bovine serum (Life Technologies Corporation) in a 384 well plate so that the cells became 15,000 cells per well, and the cells were cultured overnight at 37° C. in the absence of CO2. […] After that, the cells were cultured at 37° C. for 2 hours in the absence of CO2. 20 μl of a 40% glyoxal solution (Nacalai Tesque, INC.) was added to each well, and then the cells were left to stand at room temperature for 30 minutes to be fixed. Thereafter, the supernatant was removed by centrifuging the plate (at 800 rpm for 8 seconds by using the Ecospin of C.A.N. Hereinafter the centrifugation was performed under the same conditions unless otherwise specified), and 20 μl of 0.1% Triton X-100-containing Phosphate-Buffered Saline (PBS) was added to each well, and then left to stand at room temperature for 10 minutes. The 0.1% Triton X-100-containing PBS was removed by centrifugation, and 20 μl of a blocking solution (Odyssey Blocking Buffer manufactured by LI-COR Biosciences, Inc.) was added to each well, and then left to stand at room temperature for 1 hour. […] On the following day, the reaction solution was removed by centrifuging the plate, and 25 μl of 0.05% Tween-20-containing Tris-Buffered Saline (TBS) (manufactured by Thermo Scientific; used in 1× by diluting 20×TBS Tween-20 with ion-exchange water) was added to each well, and then each well was washed by centrifugal removal. The washing was performed for a total of 3 times. […] The reaction solution was removed by centrifuging the plate, and then each well was washed for 3 times with 0.05% Tween-20-containing TBS in the same manner as after the primary antibody reaction. After the washing solution was removed, the plate was air-dried at room temperature for 3 hours or longer and signals were measured by Aerius (manufactured by LI-COR Biosciences, Inc.).

[10] abbreviates: Test Example 4, A427, 8 mg/kg oral once a day for 21 days.
The mark [11] stands for this setting: Test Example 4, NCI-H1395, 8 mg/kg oral once a day for 35 days.
The mark [12] stands for this setting: 8 mg/kg oral once a day for 14 days.
The mark [13] stands for this setting: Test Example 4, NCI-H1993, 8 mg/kg oral once a day for 21 days.
Where [14] appears, read: Test Example 4, A427, 1 mg/kg oral once a day for 21 days.
Where [15] appears, read: Test Example 4, NCI-H1395, 1 mg/kg oral once a day for 35 days.
The mark [16] stands for this setting: 1 mg/kg oral once a day for 14 days.
The mark [17] stands for this setting: Test Example 4, NCI-H1993, 1 mg/kg oral once a day for 21 days.

Consider `COc1ccc(CN2CCC(c3ccc4[nH]c(C(=O)N5CCN(Cc6ccc(C(F)(F)F)cc6)CC5)nc4c3)CC2)cn1` [Compound A1, (5-{1-[(6-methoxypyridin-3-yl)methyl]piperidin-4-yl}-1H-benzimidazol-2-yl){4-[4-(trifluoromethyl)benzyl]piperazin-1-yl}methanone], for which the “Rate of tumor regression” value in test [1] is on record as 41% regression; in test [2], 16% regression. The entries for the “Inhibition rate of tumor growth” value in test [3] and in test [4] were 32% inhibition and 62% inhibition, respectively. In [5] (setting [10]), the “Inhibition rate A427” value was determined as 84% inhibition. Also, the “Inhibition rate NCI-H1395” value in test [6] (setting [11]) was found to be 61%. Besides, in test [7] (setting [12]), the “Inhibition rate HARA” value was found to be 1.2%. Besides, the “Inhibition rate NCI-H1993” value in test [8] (setting [13]) was 47%.
Consider `COc1cnc(CN2CCC(c3ccc4c(c3)cc(C(=O)N3CCN(Cc5ccc(C#N)cc5)CC3)n4C)CC2)cn1` [Compound D1, 4-({4-[(5-{1-[(5-methoxypyrazin-2-yl)methyl]piperidin-4-yl}-1-methyl-1H-indol-2-yl)carbonyl]piperazin-1-yl}methyl)benzonitrile], for which the EC50 in test [9] turned out to be 3.3 nM. For the same compound, the “Inhibition rate A427” value in test [5] (setting [14]) is on record as 96% inhibition. The “Inhibition rate NCI-H1395” value in [6] (setting [15]) was determined as 70%. Also, the “Inhibition rate HARA” value in test [7] (setting [16]) stood at 31%. Moreover, the “Inhibition rate NCI-H1993” value in test [8] (setting [17]) turned out to be 42%.
Take `CCOc1cnc(CN2CCC(c3ccc4cc(C(=O)N5CCN(Cc6ccc(C#N)cc6)CC5)n(C)c4c3)CC2)cn1` [Compound C1, 4-({4-[(6-{1-[(5-ethoxypyrazin-2-yl)methyl]piperidin-4-yl}-1-methyl-1H-indol-2-yl)carbonyl]piperazin-1-yl}methyl)benzonitrile]: in test [9], a half-maximal effect (EC50) was put at 1.8 nM. The “Regression rate A427” value in test [5] (setting [14]) is 69% regression. Further, the “Inhibition rate NCI-H1395” value in test [6] (setting [15]) is recorded as 75%. The “Inhibition rate HARA” value in test [7] (setting [16]) is listed as 29%. In addition, in test [8] (setting [17]), the “Inhibition rate NCI-H1993” value is 50%.
In turn, `COc1cnc(CN2CCC(c3ccc4[nH]c(C(=O)N5CCN(Cc6ccc(C(F)(F)F)cc6)CC5)nc4c3)CC2)cn1` [Compound B1, (5-{1-[(5-methoxypyrazin-2-yl)methyl]piperidin-4-yl}-1H-benzimidazol-2-yl) {4-[4-(trifluoromethyl)benzyl]piperazin-1-yl}methanone] showed an EC50 in [9] of 8.3 nM. In addition, the “Inhibition rate A427” value in [5] (setting [10]) was 99% inhibition. In addition, the “Inhibition rate NCI-H1395” value in [6] (setting [11]) was determined as 74%. Besides, the “Inhibition rate HARA” value in test [7] (setting [12]) was 14%. In addition, the “Inhibition rate NCI-H1993” value in test [8] (setting [13]) was determined as 62%.

What is called EC50 is the midpoint of the concentration-response curve. Read a high EC50 as lower potency in that assay.
